Results: publication PMC11581978, “Paenilamicins are context-specific translocation inhibitors of protein synthesis” (Nature Chemical Biology, 2024)

Experiments:
[1] = test system: E. coli ribosomes translating MLIFstop-mRNA; test: Toeprinting assay on MLIFstop-mRNA; type: biochemical; details: 0.5-100 µM, toeprinting in duplicate, 30 min at 37 °C
From the text: To investigate how paenilamicins inhibit translation, we generated PamB2-stalled ribosome complexes (PamB2-SRC) for single-particle cryo-EM analysis. Rather than forming complexes on vacant ribosomes, or with predefined functional states, we instead aimed to use more physiological complexes where translating ribosomes become stalled by PamB2. To achieve this, we performed in vitro translation reactions with E. coli ribosomes using the Met-Leu-Ile-Phe-stop-mRNA (MLIFstop-mRNA), a model template that we had previously used to successfully determine structures of drosocin-stalled ribosomal complexes. Toeprinting was used to monitor the position of ribosomes on the MLIFstop-mRNA in the presence of increasing concentrations of synthetic PamB2 (Extended Data Fig. 2). […] (Extended Data Fig. 2). […] (Extended Data Fig. 2).
Toeprinting reactions for Fig. 4b and Extended Data Fig. 2 were performed as described previously. Briefly, reactions were performed with 6 μl of PURExpress in vitro protein synthesis system (New England Biolabs). The reactions were carried out with different primers and templates (Supplementary Tables 2 and 3). The reactions contained 340 ng of the respective mRNA template and were supplemented with the different compounds as specified. The translation reactions were incubated for 30 min at 37 °C. […]

[2] = test system: eukaryotic in vitro translation; test: Eukaryotic in vitro translation assay (Rabbit Reticulocyte Lysate System); type: biochemical; details: 0.01-10 µM
Protocol: The effect of PamB2 on eukaryotic translation was determined using the Rabbit Reticulocyte Lysate System (Promega) as previously described. Briefly, 6-μl reactions, with or without PamB2 were mixed according to the manufacturer’s description and incubated for 30 min at 32 °C with shaking (600 rpm). Each reaction was stopped by adding 3 μl of cycloheximide (600 μM). All samples were diluted with 40 μl of Luciferase assays substrate (Promega) into a white 96-well chimney flat-bottom microtiter plate (Greiner). The luminescence was then measured using a Tecan Infinite M1000 plate reader. Relative values were determined by defining the luminescence value of the sample without inhibitor as 100%.

[3] = test system: EF-G-dependent translocation on the ribosome; test: Translocation assay (toeprinting, MFKAFK template); type: biochemical; details: EF-G present; tRNAfMet in P-site, N-AcPhe-tRNAPhe in A-site; in duplicate
Protocol: Translocation assays were performed as previously described[22] using the MFKAFK template[45] (Supplementary Table 2). Reactions were prepared by incubating tight-coupled ribosomes (0.7 µM) with mRNA (0.5 µM) and tRNAi^Met (1 µM) for 20 min at 37 °C in the Pure System Buffer (5 mM potassium phosphate (pH 7.3), 9 mM Mg(OAc)2, 95 mM potassium glutamate, 5 mM NH4Cl, 0.5 mM CaCl2, 1 mM spermidine, 8 mM putrescine and 1 mM dithiothreitol) and for additional 10 min at 37 °C with 2 μM of N-acetyl-Phe-tRNA^Phe. At the time of N-acetyl-Phe-tRNA^Phe addition, the reactions were supplemented with PamB2 or negamycin as specified. The translocation reaction was initiated by addition of 1 µl of EF-G–GTP mixture (1.2 µM and 3.2 mM). After 5 min of incubation at 30 °C, 2 µl of reverse transcriptase and/or dNTPs mixture was added. The reactions were stopped after another 5 min at 30 °C by addition of 200 µl of the stop buffer and subsequent phenol extraction. The obtained complementary DNA was precipitated in ethanol for subsequent gel electrophoresis.

[4] = test system: ribosomes translating ErmBL mRNA; test: Toeprinting on ErmBL mRNA templates (Figs. 4a and 5c); type: biochemical, E. coli; details: 100 µM
Protocol: Toeprinting reactions for Figs. 4a and 5c were performed as described previously. Briefly, reactions were performed with 5 μl of PURExpress in vitro protein synthesis system. The reactions contained 0.1 pmol of the respective DNA template (Supplementary Table 2) and were supplemented with retapamulin, erythromycin, mupirocin or PamB2 as specified. The transcription–translation reactions were incubated 20 min at 37 °C. Subsequently, reverse transcription was performed for 10 min at 37 °C using AMV RT and the radiolabeled NV*1-primer. Reactions were stopped by the addition of 1 µl of 10 M NaOH and then neutralized with 0.8 µl of concentrated HCl. Subsequently, 200 µl of the stop buffer (0.3 M sodium acetate (pH 5.5), 5 mM EDTA and 0.5% SDS) was added and phenol extraction was performed. The obtained complementary DNA was precipitated in ethanol for subsequent gel electrophoresis.

[5] = test system: ribosomes translating ErmBL mRNA; test: Toeprinting on ErmBL mRNA with mutated second codon (Fig. 4b); type: biochemical, E. coli; details: 50 µM, in duplicate
Protocol: Toeprinting reactions for Fig. 4b and Extended Data Fig. 2 were performed as described previously. Briefly, reactions were performed with 6 μl of PURExpress in vitro protein synthesis system (New England Biolabs). The reactions were carried out with different primers and templates (Supplementary Tables 2 and 3). The reactions contained 340 ng of the respective mRNA template and were supplemented with the different compounds as specified. The translation reactions were incubated for 30 min at 37 °C. The reverse transcription reaction was carried out using AMV RT and primer NV*1-Alexa 647 (5′-[…]-3′). The translation reactions were incubated with the reverse transcriptase and the primer for 20 min at 37 °C. mRNA degradation was carried out by the addition of 1 µl of 5 M NaOH. The reactions were neutralized with 0.7 µl of 25% HCl, and nucleotide removal was performed with the QIAquick Nucleotide Removal Kit (Qiagen). The samples were dried under vacuum for 2 h at 60 °C for subsequent gel electrophoresis. The 6% acrylamide gels were scanned on a Typhoon scanner (GE Healthcare).

paenilamicin B2 [PamB2]
ribosome stalling on MLIFstop-mRNA [1]: gradual loss of ribosomes at the AUG codon and an increase in ribosomes stalled one codon further with the UUG (Leu) codon in the P-site | inhibition of eukaryotic in vitro translation (in words) [2]: efficiently inhibits eukaryotic in vitro translation | EF-G dependent translocation (toeprint shift) [3]: little to no shift in the toeprint band | inhibition when Phe-tRNA (ms2i6A37) decodes UUC in the A-site ([4]; ErmBL mRNA): no inhibition | inhibition when tRNALeu (ms2i6A37) decodes UUG in the A-site ([4]; ErmBL mRNA): not inhibited | translation through stretches of UUG codons ([4]; ErmBL mRNA with 1–5 UUG repeats): ribosomes can translate through stretches of up to five UUG codons unhindered | ribosome stalling at serine codon UCA ([4]; ErmBL-(UUG)4 mRNA, seventh codon UCA, tRNASer with ms2i6A37): only weak stalling | ribosome stalling at serine codon UCC ([4]; ErmBL-(UUG)4 mRNA, seventh codon UCC, tRNASer lacking A37 modification): strong stalling | ribosome stalling at serine codon UCG ([4]; ErmBL-(UUG)4 mRNA, seventh codon UCG, tRNASer with ms2i6A37): only weak stalling | ribosome stalling at serine codon UCU ([4]; ErmBL-(UUG)4 mRNA, seventh codon UCU, tRNASer lacking A37 modification): strong stalling | ribosome stalling at subsequent sites, ErmBL mRNA ([4]; fourth UUC (Phe) in the P-site): a subset of ribosomes also become stalled | accumulation of ribosomes on AUG start codon, wildtype (1×UUG) ErmBL mRNA ([4]; mupirocin present, in duplicate): did not lead to a strong accumulation of ribosomes on the AUG start codon | ribosome stalling, wildtype (1×UUG) ErmBL mRNA ([4]; mupirocin present, second codon UUG in the P-site): ribosomes became stalled only once the second ermBL codon (UUG) moved into the P-site | ribosome stalling at subsequent sites, ErmBL mRNA ([4]; third GUA codon in the P-site): not the third GUA codon in the P-site | inhibition of first translocation, A-site codon AUG ([5]; ErmBL mRNA second codon AUG): clear toeprint bands | inhibition of first translocation, A-site codon CUG ([5]; ErmBL mRNA second codon CUG (tRNALeu, m1G37)): appeared to be stronger than with U, it was reproducibly weaker than with A and G | inhibition of first translocation, A-site codon GUG ([5]; ErmBL mRNA second codon GUG): appeared to be the strongest | inhibition of first translocation, A-site codon UUG ([5]; ErmBL mRNA second codon UUG): little to no inhibition of the first translocation event
